According to ChEMBL document CHEMBL1201862, “PubChem BioAssay data set” (2004):
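Step 1: Grow cells in 96-well plates. Step 2: Expose to compound for 48 hours at 5 concentrations. Step 3: Interpolate endpoints linearly; if unreached, use highest concentration. Here, GI50 denotes the concentration required for 50% inhibition of growth.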 Activity calls are given as the source filed them. Cut-off read from the data, not from the text of the source: active = GI50 up to about 1.1 µM and inactive = higher.

Tests used:
Test in all cases: NCI tumour cell line growth inhibition, 48 h
SK-MEL-5 = system: SK-MEL-5
CCRF-CEM = system: CCRF-CEM
T47D = system: T47D
PC-3 = system: PC-3
HT-29 = system: HT-29
HCT-116 = system: HCT-116
ACHN = system: ACHN
SF-295 = system: SF-295
BT-549 = system: BT-549
LOX IMVI = system: LOX IMVI
SK-OV-3 = system: SK-OV-3
UACC-257 = system: UACC-257
TK-10 = system: TK-10
OVCAR-3 = system: OVCAR-3
SF-539 = system: SF-539
EKVX = system: EKVX
MCF7 = system: MCF7
OVCAR-8 = system: OVCAR-8
NCI-H226 = system: NCI-H226
K562 = system: K562

| SMILES | GI50 (SK-MEL-5) | GI50 (CCRF-CEM) | GI50 (T47D) | GI50 (PC-3) | GI50 (HT-29) | GI50 (HCT-116) | GI50 (ACHN) | GI50 (SF-295) | GI50 (BT-549) | GI50 (LOX IMVI) | GI50 (SK-OV-3) | GI50 (UACC-257) | GI50 (TK-10) | GI50 (OVCAR-3) | GI50 (SF-539) | GI50 (EKVX) | GI50 (MCF7) | GI50 (OVCAR-8) | GI50 (NCI-H226) | GI50 (K562) |
| --- | --- | --- | --- | --- | --- | --- | --- | --- | --- | --- | --- | --- | --- | --- | --- | --- | --- | --- | --- | --- |
| Cc1nc(N)nc(N)c1N1CCN(Cc2ccccc2)CC1 | > 37.8 µM (inactive) | 16.5 µM (inactive) | > 100 µM (inactive) | 7.48 µM (inactive) | 11.8 µM (inactive) | 4.71 µM (inactive) | 12.6 µM (inactive) | 7.06 µM (inactive) | > 93.3 µM (inactive) | 8.15 µM (inactive) | > 55.1 µM (inactive) | 9.64 µM (inactive) | 66.1 µM (inactive) | 47.8 µM (inactive) | 27.2 µM (inactive) | > 53.6 µM (inactive) | 27.1 µM (inactive) | 14.9 µM (inactive) | 12.1 µM (inactive) | 6.44 µM (inactive) |
| CCOC(=O)C1(Cc2ccc(C)cc2)Cc2ccc(C)cc2C1=O (stereo not drawn) | 6.4 µM (inactive) | 8.05 µM (inactive) | 12.4 µM (inactive) | 26 µM (inactive) | 5.43 µM (inactive) | 6.73 µM (inactive) | 41.7 µM (inactive) | 15.4 µM (inactive) | 10 µM (inactive) | 12.4 µM (inactive) | 24.4 µM (inactive) | 18.9 µM (inactive) | 23.5 µM (inactive) | 18.5 µM (inactive) | 19.8 µM (inactive) | 36.7 µM (inactive) | 6.52 µM (inactive) | 27.2 µM (inactive) | 35.2 µM (inactive) | 1.88 µM (inactive) |
| CC(=O)N(C(C)=O)c1cc2c3c(c1)CCCN3CCC2 | > 10 µM (inactive) | > 10 µM (inactive) | > 10 µM (inactive) | > 10 µM (inactive) | > 10 µM (inactive) | > 10 µM (inactive) | > 10 µM (inactive) | > 10 µM (inactive) | > 10 µM (inactive) | > 10 µM (inactive) | > 10 µM (inactive) | > 10 µM (inactive) | > 10 µM (inactive) | > 10 µM (inactive) | > 10 µM (inactive) | > 10 µM (inactive) | > 10 µM (inactive) | > 10 µM (inactive) | > 10 µM (inactive) | > 10 µM (inactive) |
| O=C(Nc1cc2c(=O)oc3ccccc3c2oc1=O)c1cccnc1 | > 100 µM (inactive) | > 100 µM (inactive) | > 100 µM (inactive) | > 100 µM (inactive) | > 100 µM (inactive) | > 100 µM (inactive) | 50 µM (inactive) | > 100 µM (inactive) | > 100 µM (inactive) | > 100 µM (inactive) | > 100 µM (inactive) | > 100 µM (inactive) | > 100 µM (inactive) | > 100 µM (inactive) | > 100 µM (inactive) | > 100 µM (inactive) | > 100 µM (inactive) | 45 µM (inactive) | > 100 µM (inactive) | > 100 µM (inactive) |
| CN(CCN(C)Cc1ccc(Cl)c(Cl)c1)CCN1CCCC1 | 14.9 µM (inactive) | 3.72 µM (inactive) | 57.9 µM (inactive) | 32.5 µM (inactive) | 6.32 µM (inactive) | 13.1 µM (inactive) | > 43.3 µM (inactive) | 26.1 µM (inactive) | 65.6 µM (inactive) | 13.4 µM (inactive) | 71.9 µM (inactive) | 9.16 µM (inactive) | 40 µM (inactive) | > 75.7 µM (inactive) | 19.6 µM (inactive) | > 64 µM (inactive) | 28.4 µM (inactive) | 20.1 µM (inactive) | 39.1 µM (inactive) | 9.16 µM (inactive) |
| Oc1ccc(CNCc2ccccc2)c2cccnc12 | 0.191 µM (active) | 0.0436 µM (active) | 0.0783 µM (active) | 0.336 µM (active) | 4.11 µM (inactive) | 0.0594 µM (active) | 0.182 µM (active) | 0.144 µM (active) | 0.0703 µM (active) | 0.0308 µM (active) | 0.542 µM (active) | 0.262 µM (active) | 0.282 µM (active) | 0.217 µM (active) | 0.34 µM (active) | 0.495 µM (active) | 0.11 µM (active) | 0.107 µM (active) | 5 µM (inactive) | 0.138 µM (active) |
| CCOC(=O)C[n+]1cccc(C2(c3cc4ccccc4[nH]3)OCCO2)c1 | > 100 µM (inactive) | > 100 µM (inactive) | > 100 µM (inactive) | > 100 µM (inactive) | > 100 µM (inactive) | > 100 µM (inactive) | > 100 µM (inactive) | > 100 µM (inactive) | > 100 µM (inactive) | > 100 µM (inactive) | > 100 µM (inactive) | > 100 µM (inactive) | > 100 µM (inactive) | > 100 µM (inactive) | > 100 µM (inactive) | > 100 µM (inactive) | > 100 µM (inactive) | > 100 µM (inactive) | > 100 µM (inactive) | > 100 µM (inactive) |
| CCC1CCC2c3c([nH]c4ccc(C)cc34)C3C(=O)N(N(C)C)C(=O)C3C2C1 (stereo not drawn) | 12.8 µM (inactive) | 12.7 µM (inactive) | 7.93 µM (inactive) | 6.22 µM (inactive) | 7.28 µM (inactive) | 7.36 µM (inactive) | 91.2 µM (inactive) | 5.11 µM (inactive) | 39.1 µM (inactive) | 13.7 µM (inactive) | > 100 µM (inactive) | 5.64 µM (inactive) | 32.4 µM (inactive) | 0.787 µM (active) | 18.2 µM (inactive) | 26.7 µM (inactive) | 3.64 µM (inactive) | 22.2 µM (inactive) | > 72.4 µM (inactive) | 2.62 µM (inactive) |
| O=C1c2c(O)cccc2C(C(=O)CCCCC(=O)C2c3cccc(O)c3C(=O)c3c(O)cccc32)c2cccc(O)c21 | 0.473 µM (active) | 0.652 µM (active) | 0.442 µM (active) | 0.107 µM (active) | 0.641 µM (active) | 0.67 µM (active) | 0.729 µM (active) | 0.469 µM (active) | 0.603 µM (active) | 0.668 µM (active) | 0.562 µM (active) | 0.526 µM (active) | 1.55 µM (inactive) | 0.547 µM (active) | 0.399 µM (active) | 0.596 µM (active) | 0.845 µM (active) | 0.733 µM (active) | 0.918 µM (active) | 0.661 µM (active) |
| COc1ccc(/C=C/C(=O)N[C@@H]2C(=O)N3[C@@H]2SC(C)(C)[C@@H]3C(=O)O)cc1 | > 100 µM (inactive) | > 100 µM (inactive) | > 100 µM (inactive) | > 100 µM (inactive) | > 100 µM (inactive) | > 100 µM (inactive) | > 100 µM (inactive) | > 100 µM (inactive) | > 100 µM (inactive) | > 100 µM (inactive) | > 100 µM (inactive) | > 100 µM (inactive) | > 100 µM (inactive) | > 100 µM (inactive) | > 100 µM (inactive) | > 100 µM (inactive) | > 100 µM (inactive) | > 100 µM (inactive) | > 100 µM (inactive) | > 100 µM (inactive) |
| CC1=C(C(=O)OC(C)C)C(c2cccc([N+](=O)[O-])c2)C(C(=O)OC(CO[N+](=O)[O-])CO[N+](=O)[O-])=C(C)N1 (stereo not drawn) | 1.96 µM (inactive) | 1.92 µM (inactive) | 3.99 µM (inactive) | 2.05 µM (inactive) | 3.21 µM (inactive) | 2.66 µM (inactive) | 3.44 µM (inactive) | 0.501 µM (active) | 2.67 µM (inactive) | 3.08 µM (inactive) | 7.01 µM (inactive) | 3.54 µM (inactive) | 8.07 µM (inactive) | 3.45 µM (inactive) | 3.01 µM (inactive) | 4.37 µM (inactive) | 0.61 µM (active) | 3.85 µM (inactive) | 6.55 µM (inactive) | 2.76 µM (inactive) |
| CCN(CC)CCSc1c2cc(OC)ccc2nc2ccc(OC)cc12 | 13.6 µM (inactive) | 2.86 µM (inactive) | 1.93 µM (inactive) | 3.56 µM (inactive) | 2.05 µM (inactive) | 2.26 µM (inactive) | 2.21 µM (inactive) | 19.4 µM (inactive) | 5.69 µM (inactive) | 2.17 µM (inactive) | 25.1 µM (inactive) | 4.35 µM (inactive) | 4.65 µM (inactive) | 2.59 µM (inactive) | 2.45 µM (inactive) | 9.59 µM (inactive) | 2.51 µM (inactive) | 3.12 µM (inactive) | 16.2 µM (inactive) |  |
| O=c1c(Cc2ccccc2)c(-c2ccccc2)[nH]n1C1=NCCN1 | 32.4 µM (inactive) | 16.7 µM (inactive) | 45.3 µM (inactive) | 36.8 µM (inactive) | 24.2 µM (inactive) | 24.6 µM (inactive) | 29.3 µM (inactive) | 43.6 µM (inactive) | > 100 µM (inactive) | 15.5 µM (inactive) | > 100 µM (inactive) | 52.6 µM (inactive) | 37.6 µM (inactive) | 24.4 µM (inactive) | 58.1 µM (inactive) | 39.1 µM (inactive) | 40.1 µM (inactive) | 40 µM (inactive) | 46 µM (inactive) | 53.5 µM (inactive) |
| Cc1ccc(/N=N/c2c(C)nn(C(=O)CC(=O)Nc3ccccc3)c2C)cc1C | > 100 µM (inactive) | > 100 µM (inactive) | > 100 µM (inactive) | > 100 µM (inactive) | > 100 µM (inactive) | > 100 µM (inactive) | > 100 µM (inactive) | > 100 µM (inactive) | > 100 µM (inactive) | > 100 µM (inactive) | > 100 µM (inactive) | > 10 µM (inactive) | > 100 µM (inactive) | > 100 µM (inactive) | > 100 µM (inactive) | 26.2 µM (inactive) | > 100 µM (inactive) | > 100 µM (inactive) | > 100 µM (inactive) |  |
